We go through one compound from US20200085789A1, “USE OF A PROTEASOME INHIBITOR FOR THE TREATMENT OF CENTRAL NERVOUS SYSTEM (CNS) CANCERS” (Celgene International II Sàrl, priority 2017, published 2020).

Assay [1] deals with WHO Grade IV malignant glioma. Put plainly: Tumor response by RANO criteria, MRZ ± BEV in recurrent grade IV malignant glioma patients. The following applies: for Best Response CR (0), patients / Best Response PD (19), patients / Best Response PR (1), patients / Best Response SD (8), patients: Monotherapy ITT; for SPD: Monotherapy. It counts as in vivo, human.
Protocol: Tumor response was measured every other cycle by RANO criteria.
The drugs were infused on 28-Day Cycles. Tumor response is assessed every other cycle by RANO criteria.
Assessment will include MRI scans at the end of every even numbered cycle (±7 days) using RANO 2010 criteria for assessment.
The test system of assay [2] is human glioblastoma (GBM) cell lines. The settings on record: either of two GBM lines; cited from earlier work.
The mark [3] stands for this setting: Phase 2 monotherapy, of 30 patients.

The structures appear in SMILES notation.

As to `C[C@@]12OC(=O)[C@]1([C@@H](O)[C@@H]1C=CCCC1)NC(=O)[C@@H]2CCCl` [MRZ, marizomib], in assay [1] (Methylated N = 7), the “Best Response CR (0), patients” value is listed as 0; the “Best Response PD (19), patients” value was 4; the “Best Response PR (1), patients” value amounted to 0; the “Best Response SD (8), patients” value stood at 3. Moreover, in assay [1] (Unknown N = 5), the “Best Response CR (0), patients” value turned out to be 0; the “Best Response PD (19), patients” value is 3; the “Best Response PR (1), patients” value was found to be 0; the “Best Response SD (8), patients” value came out at 1. In addition, in assay [1] (Unmethylated N = 18), the “Best Response CR (0), patients” value is 0; the “Best Response PD (19), patients” value worked out at 12; the “Best Response PR (1), patients” value was 1; the “Best Response SD (8), patients” value was found to be 4. Moreover, the SPD in assay [1] (Pt 0511, Screening SPD 703.47) was found to be 231.3. Besides, the SPD in assay [1] (Pt 0515, Screening SPD 199.6) stood at 259.5. In assay [1] (Pt 0521, Screening SPD 836.44), the SPD came to 832.82. In assay [1] (Phase 2 monotherapy 0.8 mg/m^2, 30 patients), this compound came in with an overall response rate of 3%. Further, in assay [1] (setting [3]), the “partial response, patients” value is on record as 1 and the “progressive disease, patients” value was 19. The “disease course in most patients” value in assay [1] (marizomib alone) is “rapid progression”. The “decrease of matrix invasion” value in assay [2] is on record as “approximately 90%”.
